According to PMC12775434, “Ultra-large virtual screening unveils potent agonists of the neuromodulatory orphan receptor GPR139” (Nature Communications, 2025):
Several values for one entry are separate records, joined by “and”; a condition that tells them apart may be missing. Identical values can stand only once.

Assays:
Type in all cases: cell-based
[1] = target: T1, human muscarinic acetylcholine M1 receptor (M1R) (Homo sapiens, UniProt P11229); assay: Ca2+ mobilization counter-screen in M1R-CHOk1 cells; settings: individual replicates (Supplementary Figure 5);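 further: 10 µM test compound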
T1 sequence (P11229 1-460): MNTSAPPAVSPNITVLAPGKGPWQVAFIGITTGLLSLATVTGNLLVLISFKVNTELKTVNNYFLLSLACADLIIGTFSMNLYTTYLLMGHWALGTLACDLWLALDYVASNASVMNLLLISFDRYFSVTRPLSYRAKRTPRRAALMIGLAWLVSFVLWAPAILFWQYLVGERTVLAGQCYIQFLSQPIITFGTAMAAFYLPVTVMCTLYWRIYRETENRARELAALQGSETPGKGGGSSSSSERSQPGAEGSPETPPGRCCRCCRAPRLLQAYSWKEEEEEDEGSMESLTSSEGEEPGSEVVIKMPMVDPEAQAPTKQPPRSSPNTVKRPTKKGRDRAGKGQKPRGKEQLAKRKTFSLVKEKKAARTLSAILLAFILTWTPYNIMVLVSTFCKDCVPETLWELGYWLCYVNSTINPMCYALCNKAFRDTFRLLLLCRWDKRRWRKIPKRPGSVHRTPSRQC
Outline: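 Counter-screen used CHO-K1 cells stably carrying human M1R, Fluo-4 AM-loaded (2 µM, 1 h, 37 °C). Calcium signal measured at 485/525 nm after compound addition.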

GPR139 [2] = target: T2, GPR139 (Homo sapiens, UniProt Q6DWJ6); assay: Ca2+ mobilization assay, antagonist mode (EC80 800 nM Lundbeck Cmp 1a after 20 min preincubation), GPR139-CHOk1; settings: individual replicates (Supplementary Figure 4)
T2 sequence (Q6DWJ6 1-353): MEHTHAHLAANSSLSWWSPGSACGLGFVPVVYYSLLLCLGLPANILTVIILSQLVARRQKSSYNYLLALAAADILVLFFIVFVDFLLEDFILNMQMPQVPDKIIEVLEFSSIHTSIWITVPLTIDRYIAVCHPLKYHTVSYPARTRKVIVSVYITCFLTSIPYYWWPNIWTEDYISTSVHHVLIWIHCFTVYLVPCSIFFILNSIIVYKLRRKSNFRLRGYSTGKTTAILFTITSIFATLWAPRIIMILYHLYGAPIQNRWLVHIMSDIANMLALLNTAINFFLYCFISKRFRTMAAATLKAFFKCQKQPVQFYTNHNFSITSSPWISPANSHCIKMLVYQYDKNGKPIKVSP
Outline: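 Antagonist mode: 800 nM (EC80) reference agonist Lundbeck Cmp 1a added following 20 min pre-incubation with 10 µM compound. GPR139-CHOk1 cells, Fluo-4 dye, probenecid-containing HEPES buffer pH 7.4; intracellular Ca2+ measured at 37 °C (ex 485, em 525 nm).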

GPR139 [3] = target: T2, GPR139; assay: Ca2+ mobilization assay, agonist mode, stable GPR139-CHOk1 cell line; settings: for EC50 / Emax: Supplementary Table 2, mean ± SEM; for EC50: read-out: pEC50 Ca2+ (converted); for Emax: normalized to Lundbeck Cmp 1a, read-out: Emax (%) Ca2+; for change in potency with larger substituents on the thiophene ring: Ca2+ mobilization
Outline: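 Agonist activity of compounds is assessed in stably transfected CHO-K1 cells using the calcium dye Fluo-4 at 37 °C in HEPES-buffered HBSS (pH 7.4). Efficacy is expressed relative to the reference agonist Lundbeck Cmp 1a, set as 100%.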

[4] = Agonist mode, individual replicates (Supplementary Figure 4)
[5] = log [Compound] M = -4.5, individual replicate columns
[6] = log [Compound] M = -5.0, individual replicate columns
[7] = log [Compound] M = -5.5, individual replicate columns
[8] = log [Compound] M = -6.0, individual replicate columns
[9] = log [Compound] M = -6.5, individual replicate columns
[10] = log [Compound] M = -7.0, individual replicate columns
[11] = log [Compound] M = -7.5, individual replicate columns
[12] = log [Compound] M = -8.0, individual replicate columns
[13] = log [Compound] M = -8.5, individual replicate columns
[14] = log [Compound] M = -9.0, individual replicate columns

Row | EC50 (GPR139 [3]) [nM] | Emax (GPR139 [3]) [%] | SMILES | Ca2+ signal (% of Carbachol) [1] | Ca2+ signal (% of Cmp 1a) (GPR139 [2]) | Ca2+ signal (% of Cmp 1a) (GPR139 [3]; [4]) | Ca2+ signal (% of Cmp 1a) (GPR139 [3]; [5]) | Ca2+ signal (% of Cmp 1a) (GPR139 [3]; [6]) | Ca2+ signal (% of Cmp 1a) (GPR139 [3]; [7]) | Ca2+ signal (% of Cmp 1a) (GPR139 [3]; [8]) | Ca2+ signal (% of Cmp 1a) (GPR139 [3]; [9]) | Ca2+ signal (% of Cmp 1a) (GPR139 [3]; [10]) | Ca2+ signal (% of Cmp 1a) (GPR139 [3]; [11]) | Ca2+ signal (% of Cmp 1a) (GPR139 [3]; [12]) | Ca2+ signal (% of Cmp 1a) (GPR139 [3]; [13]) | Ca2+ signal (% of Cmp 1a) (GPR139 [3]; [14]) | change in potency with larger substituents on the thiophene ring (GPR139 [3])
1 | 316 | 123 ± 14 | COc1csc(-c2nc(CC(=O)NC(C)c3ccccc3)no2)c1 (centres unmarked) [Compound 1.39, COC1=CSC(=C1)C2=NC(CC(=O)NC(C)C=3C=CC=CC3)=NO2] | -14 % of Carbachol and -1 % of Carbachol and -5.33 % of Carbachol | -8 % of Cmp 1a and 12 % of Cmp 1a and -11 % of Cmp 1a | 80 % of Cmp 1a and 95 % of Cmp 1a and 86 % of Cmp 1a | 120 % of Cmp 1a and 97 % of Cmp 1a and 133 % of Cmp 1a | 130 % of Cmp 1a and 91 % of Cmp 1a and 148 % of Cmp 1a | 122 % of Cmp 1a and 94 % of Cmp 1a and 152 % of Cmp 1a | 98 % of Cmp 1a and 72 % of Cmp 1a and 114 % of Cmp 1a | 73 % of Cmp 1a and 44 % of Cmp 1a and 79 % of Cmp 1a | 38 % of Cmp 1a and 21 % of Cmp 1a and 34 % of Cmp 1a | 20 % of Cmp 1a and 15 % of Cmp 1a and 2 % of Cmp 1a | 16 % of Cmp 1a and 17 % of Cmp 1a and -3.33 % of Cmp 1a | 7 % of Cmp 1a and 12 % of Cmp 1a and -8 % of Cmp 1a | 15 % of Cmp 1a and 20 % of Cmp 1a and 0.667 % of Cmp 1a | –
2 | 1580 | 67 ± 4 | CC(C)c1ccc(-c2nc(CC(=O)NC(C)c3ccccc3)no2)s1 (centres unmarked) [Compound 1.41, CC(C)C1=CC=C(S1)C2=NC(CC(=O)NC(C)C=3C=CC=CC3)=NO2] | -18 % of Carbachol and 8 % of Carbachol and -8 % of Carbachol | 24 % of Cmp 1a and 11 % of Cmp 1a and -0.667 % of Cmp 1a | 66 % of Cmp 1a and 76 % of Cmp 1a and 60 % of Cmp 1a | 69 % of Cmp 1a and 62 % of Cmp 1a and 57 % of Cmp 1a | 70 % of Cmp 1a and 71 % of Cmp 1a and 40 % of Cmp 1a | 56 % of Cmp 1a and 47 % of Cmp 1a and 25 % of Cmp 1a | 34 % of Cmp 1a and 27 % of Cmp 1a and 22 % of Cmp 1a | 15 % of Cmp 1a and 0.333 % of Cmp 1a and 5.33 % of Cmp 1a | 13 % of Cmp 1a and -9 % of Cmp 1a and 4.33 % of Cmp 1a | -1.33 % of Cmp 1a and -6.33 % of Cmp 1a and 3 % of Cmp 1a | -4.33 % of Cmp 1a and 0 % of Cmp 1a (2×) | 0 % of Cmp 1a and -2.67 % of Cmp 1a and 0.333 % of Cmp 1a | -1.67 % of Cmp 1a and -4.33 % of Cmp 1a and -2.33 % of Cmp 1a | three-fold reduction to a complete loss of activity

Row | SMILES | EC50 (GPR139 [3]) [nM] | Emax (GPR139 [3]) [%] | Ca2+ signal (% of Carbachol) [1] | Ca2+ signal (% of Cmp 1a) (GPR139 [2]) | Ca2+ signal (% of Cmp 1a) (GPR139 [3]; [4]) | Ca2+ signal (% of Cmp 1a) (GPR139 [3]; [5]) | Ca2+ signal (% of Cmp 1a) (GPR139 [3]; [6]) | Ca2+ signal (% of Cmp 1a) (GPR139 [3]; [7]) | Ca2+ signal (% of Cmp 1a) (GPR139 [3]; [8]) | Ca2+ signal (% of Cmp 1a) (GPR139 [3]; [9]) | Ca2+ signal (% of Cmp 1a) (GPR139 [3]; [10]) | Ca2+ signal (% of Cmp 1a) (GPR139 [3]; [11]) | Ca2+ signal (% of Cmp 1a) (GPR139 [3]; [12]) | Ca2+ signal (% of Cmp 1a) (GPR139 [3]; [13]) | Ca2+ signal (% of Cmp 1a) (GPR139 [3]; [14]) | change in potency with larger substituents on the thiophene ring (GPR139 [3])
3 | Cc1cnc2ccc(-c3nc(CC(=O)NC(C)c4ccccc4)no3)cn12 (centres unmarked) [Compound 1.40, CC(NC(=O)CC1=NOC(=N1)C=2C=CC3=NC=C(C)N3C2)C=4C=CC=CC4] | 3160 | 86 ± 7 | -14 % of Carbachol and -5 % of Carbachol and -4.33 % of Carbachol | 23 % of Cmp 1a and 31 % of Cmp 1a and 12 % of Cmp 1a | 51 % of Cmp 1a and 56 % of Cmp 1a | 93 % of Cmp 1a and 71 % of Cmp 1a and 89 % of Cmp 1a | 80 % of Cmp 1a and 64 % of Cmp 1a and 78 % of Cmp 1a | 57 % of Cmp 1a and 35 % of Cmp 1a and 53 % of Cmp 1a | 32 % of Cmp 1a and 13 % of Cmp 1a and 17 % of Cmp 1a | 17 % of Cmp 1a and -10 % of Cmp 1a and -16 % of Cmp 1a | 21 % of Cmp 1a and -2.33 % of Cmp 1a and -20 % of Cmp 1a | 0 % of Cmp 1a and 1.33 % of Cmp 1a and 22 % of Cmp 1a | 11 % of Cmp 1a and 0.667 % of Cmp 1a and 28 % of Cmp 1a | 16 % of Cmp 1a and -6.33 % of Cmp 1a and 31 % of Cmp 1a | 20 % of Cmp 1a and -7 % of Cmp 1a and 0.667 % of Cmp 1a | three-fold reduction to a complete loss of activity
